Consider one compound from patent publication US20250345317A1, “New pharmaceutical compounds, methods and uses thereof” (BBIT-THERAPEUTICS, LDA., priority 2020, published 2025).

One data set concerns MCF-7. Briefly: Growth inhibition, SRB assay, MCF-7. Particulars: Homo sapiens, MCF7, 48 h. Format: cell-based, human. An excerpt:
(§1) Table 2 refers to the growth inhibitory effect of COMP, olaparib and cisplatin (CDDP) in a panel of human immortalized breast (T47D, MCF-7, MDA-MB-231, MDA-MB-468, SK-BR-3 and HCC1937), ovarian and endocervical (OCVAR, SKOV-3, […],IGROV-1 and HeLa), pancreatic (PANC-1 and MIAPACA), neuroblastoma (SHSY-5Y), lung (NCI-H460), prostate (VCaP) melanoma (A375 and SK-MEL-5) and glioblastoma (SF-208) cancer cells, immortalized normal MCF10a and HFF1 human cells, and patient-derived ovarian (PD-OVCA #1, #9, #41, #49 and #62) cancer cells. […] Data are mean±SEM (n=5).
(§2) In an embodiment, IC50 values were determined by Sulforhodamine B (SRB) or MTS [3-(4,5-dimethylthiazol-2-yl)-5-(3-carboxymethoxyphenyl)-2-(4-sulfophenyl)-2H-tetrazolium] assay in immortalized and PD-OVCA cells, respectively. Cancer cells were plated in 96-well plates and incubated for 24 hours. Cells were then exposed to serial dilutions of compounds for 48 hours. The solvent DMSO corresponding to the maximum concentration used in these assays (0.025%) was included as control. Results are the mean±S.E.M. of 3-5 independent experiments.

In another data set the test system is OVCAR-3. Briefly: Growth inhibition, SRB assay, OVCAR-3. Format: cell-based, human. Particulars: Homo sapiens, OVCAR-3, 48 h.
From the text: as §1, §2
On the technique in general: In SRB staining, fixed cells bind dye roughly in proportion to their protein.

The next data set deals with HeLa. As to the kind of experiment: Growth inhibition, SRB assay, HeLa. It counts as cell-based. As to conditions: Homo sapiens, wild-type BRCA1/2, 48 hours.
From the text: as §1, §2

For the next data set, the system named is SF-208. As to the kind of experiment: Growth inhibition, SRB assay, SF-208. Particulars: Homo sapiens, SF-208, wild-type BRCA1/2, 48 hours. It counts as cell-based.
From the text: as §1, §2

A further data set concerns SK-MEL-5. As to the kind of experiment: Growth inhibition, SRB assay, SK-MEL-5. Format: cell-based. As to conditions: Homo sapiens, SK-MEL-5, wild-type BRCA1/2, 48 hours.
From the text: as §1, §2

The next data set concerns A375. As to the kind of experiment: Growth inhibition, SRB assay, A375. It counts as cell-based. Particulars: Homo sapiens, A-375, A375, wild-type BRCA1/2, 48 hours.
From the text: as §1, §2

A further data set relates to Vcap. Briefly: Growth inhibition, SRB assay, Vcap. It counts as cell-based. Particulars: Homo sapiens, wild-type BRCA1/2, 48 hours.
From the text: as §1, §2

A further data set concerns MDA-MB-231. As to the kind of experiment: Growth inhibition, SRB assay, MDA-MB-231. Format: cell-based, human. As to conditions: Homo sapiens, MDA-MB-231, 48 h.
From the text: as §1, §2

The test system of the next data set is HFF-1. As to the kind of experiment: Growth inhibition, SRB assay, normal HFF-1 cells. Format: cell-based, human. As to conditions: Homo sapiens, HFF-1, 48 h.
From the text: as §1, §2

The test system of data set [1] is PD-OVCA#9 (mutBRCA1: c. 4389C > G; mutBRCA2: c6252delT). As to the kind of experiment: Growth inhibition, MTS assay, PD-OVCA#9. It counts as cell-based, human. As to conditions: Homo sapiens, PD-OVCA#9, pathogenic mutant BRCA1/2, 48 hours.
From the text: as §1, §2

Data set [2] has as its system PD-OVCA#41 (mutBRCA2: c. 3707dupA). As to the kind of experiment: Growth inhibition, MTS assay, PD-OVCA#41. It counts as cell-based, human. Particulars: Homo sapiens, PD-OVCA#41, benign mutant BRCA1 with pathogenic mut BRCA2, 48 hours.
From the text: as §1, §2
(Tetrazolium assays rely on reduction of a dye to a coloured formazan, in cell work by metabolically active cells.)

A further data set has as its system PD-OVCA#62. As to the kind of experiment: Growth inhibition, MTS assay, PD-OVCA#62. Format: cell-based, human. Particulars: Homo sapiens, PD-OVCA#62, wild-type BRCA1/2, 48 hours.
From the text: as §1, §2

Data set [3] concerns ovarian and endocervical cancer cells (OCVAR, SKOV-3, SK-BR-3, IGROV-1 and HeLa). Briefly: Growth inhibition, panel of ovarian and endocervical cancer cells. It counts as cell-based. Particulars: Homo sapiens, range over OCVAR, 48 hours. How it is done: In an embodiment, the activity of COMP compound was tested in an array of human normal and cancer cell lines (Table 2, FIG. 2).
as §1, §2

For data set [4], the system named is triple-negative breast cancer and ovarian cancer cells. Briefly: ROS generation (H2DCFDA flow cytometry). Format: cell-based, human. Particulars: 6 and 12 μM, 48 hours. How it is done: Cell cycle phases were analysed by flow cytometry using propidium iodide (PI) and quantified using the FlowJo software. Apoptosis and ROS were analysed by flow cytometry using FITC-Annexin V/PI and 2′,7′-dichlorodihydrofluorescein diacetate (H2DCFDA) respectively.
(In flow cytometry, cells or beads pass a laser one at a time.)

Data set [5] deals with phosphorylated (Ser139) histone H2AX (γH2AX). Briefly: γH2AX expression and foci formation. As to conditions: 12 μM, 48 hours; MDA-MB-231, HCC1937 and IGROV-1 cells. It counts as cell-based, human. The method, then: FIG. 10 illustrates the effect of 12 μM COMP on (A) γH2AX expression levels and on (FIG. 10B) γH2AX and RAD51 foci formation, and BRCA1 foci formation and cellular localization after 48 hours of treatment. […] FIG. 10B are representative images generated using Fiji software (scale bar=100 μm; 400 × magnification).
In an embodiment, 12 μM of COMP increased the amount of phosphorylated (Ser139) histone H2AX (γH2AX) (FIG. 10A) and the number of γH2AX-positive foci formed in MDA-MB-231, HCC1937 and IGROV-1 cells (FIG. 10B and FIG. 10C).

The nature of data set [6]: Body and organ weight of treated xenograft mice. Format: in vivo. Particulars: 2 mg/kg intraperitoneal, seven administrations; compared to vehicle. The method, then: FIG. 14 illustrates the in vivo antitumor activity of COMP. C57BL/6-Rag2−/−IL2rg−/− xenograft mice, carrying IGROV-1 cells, were treated with vehicle (control), or 2 mg/kg of COMP or 50 mg/kg of olaparib by intraperitoneal injection three times per week (seven administrations in total). The treatment was initiated when palpable tumors were established (^˜100 mm3). […] In FIGS. 14A-C, data are mean±SEM, n=13 animals.

As a reminder, the IC50 is the concentration needed to halve the response being measured. A low value points to greater potency.

Regarding `CC[C@H]1CN(C)C2Cc3c([nH]c4ccccc34)/C(=N/Nc3ccc(Br)cn3)C[C@@H]1[C@@H]2C(=O)OC` [COMP, methyl (5R,6S,14S,E)-8-(2-(5-bromopyridin-2-yl) hydrazineylidene)-5-ethyl-3-methyl-2,3,4,5,6,7,8,9-octahydro-1H-2,6-methanoazecino [5,4-b]indole-14-carboxylate], the IC50 was 12 µM in the data set with MCF-7 (MCF-7, BRCA1 wild-type, 48 hours (second Table 2)); 12 ± 1.5 µM with MCF-7 (MCF-7, wild-type BRCA1/2, 48 hours); 13.9 µM in the data set on OVCAR-3 (OVCAR-3, BRCA1 wild-type, 48 hours (second Table 2)); 13.9 ± 1.7 µM with OVCAR-3 (OVCAR-3, wild-type BRCA1/2, 48 hours); 5.8 ± 0.8 µM in the data set with HeLa; 12.5 ± 0.45 µM with SF-208. Also, the IC50 in the data set with SK-MEL-5 was 5.65 ± 0.95 µM; in the data set on A375, 15.5 ± 0.5 µM; in the data set on Vcap, 11.7 ± 3.4 µM; in the data set with MDA-MB-231 (MDA-MB-231, BRCA1 loss of heterozigoty, 48 hours), 5 ± 1.4 µM; with MDA-MB-231 (MDA-MB-231, BRCA1 loss of heterozygosity, 48 hours (second Table 2)), 5 µM; in the data set with HFF-1 (HFF1 normal cells, 48 hours (second Table 2)) it was 33.6 µM. The IC50 in the data set on HFF-1 (HFF-1 normal cells, 48 hours) was 33.6 µM; in data set [1], 5.1 ± 1 µM; in data set [2] it was 14.1 ± 0.9 µM; with PD-OVCA#62, 14.2 ± 2.9 µM; in data set [3], 4.6 to 13.9 µM. Moreover, the ROS production entry in data set [4] was “increases ROS production”. In addition, the “amount of γH2AX and number of γH2AX-positive foci” value in data set [5] is recorded as “increased”. The body weight result in data set [6] is listed as “no significant variation”. For the same compound, the “organs weight (spleen, liver, heart and kidneys)” value in data set [6] was “no significant variation”.
